According to US7767677B2, “Heterocyclic derivatives and their use as stearoyl-CoA desaturase inhibitors” (Xenon Pharmaceuticals Inc., priority 2004, dated 2010):

Row | melting point [°C] | Compound
1 | 164 | CCCCCc1noc(-c2ccc(N3CCN(C(=O)c4ccccc4C(F)(F)F)CC3)nn2)n1 [Example 7.1, {4-[6-(3-pentyl[1,2,4]oxadiazol-5-yl)pyridazin-3-yl]piperazin-1-yl}-(2-trifluoromethylphenyl)methanone]
2 | 122 to 125 | O=C(c1cc(F)ccc1C(F)(F)F)N1CCN(c2ccc(-c3ncc(-c4ccccc4)o3)nn2)CC1 [Example 12, (5-fluoro-2-trifluoromethylphenyl)-{4-[6-(5-phenyloxazol-2-yl)pyridazin-3-yl]piperazin-1-yl}methanone]

More lines, now with the values behind:

Row | Compound | melting point [°C]
3 | CCc1nc(-c2ccc(N3CCN(C(=O)c4ccccc4C(F)(F)F)CC3)nn2)no1 [Example 4, {4-[6-(5-ethyl-[1,2,4]oxadiazol-3-yl)pyridazin-3-yl]piperazin-1-yl}-(2-trifluoromethylphenyl)methanone] | 204
4 | CCCc1noc(-c2ccc(N3CCN(C(=O)c4ccccc4C(F)(F)F)CC3)nn2)n1 [Example 7, {4-[6-(3-propyl[1,2,4]oxadiazol-5-yl)pyridazin-3-YL]piperazin-1-yl}-(2-trifluoromethylphenyl)methanone] | 226
5 | CCCCc1nc(-c2ccc(N3CCN(C(=O)c4ccccc4C(F)(F)F)CC3)nn2)no1 [Example 4.1, {4-[6-(5-butyl[1,2,4]oxadiazol-3-yl)pyridazin-3-yl]piperazin-1-yl}-(2-trifluoromethylphenyl)methanone] | 175
